Reference: patent publication US20030198690A1, “Device and method for treating restenosis” (Medical Research Fund of Tel Aviv Sourasky Medical Center, priority 2002, published 2003)

How the values were obtained:
Wistar rats = assay: Balloon dilation carotid injury in rats, morphometric and immunohistochemical analysis of arteries; type: in vivo
Experimental: (§1) Carotid injury was induced in Wistar rats by balloon dilation according to a conventional model (Clowes A W, Reidy M A, Clowes M M. Kinetic of cellular proliferation after arterial injury. Lab Invest 1983; 49:327-334). Rats were then injected daily i.p. with either zinc (at a concentration of 5 mg/kg) or saline (control) for 2 weeks until sacrifice. Arteries were taken for morphometeric and immunohistochemical analysis.

[1] = Levels of serum zinc in treated rats; type: in vivo, Wistar rats; settings: zinc 5 mg/kg i.p. daily for 2 weeks; p<0.01 vs control rats
Experimental: as §1
Levels of serum zinc were elevated in the zinc-treated rats (248.2±19.4 pg/ml) as compared to the control rats (136.8±7.2 pg/ml; p<0.01).

In the case of `[Zn]` [zinc], the “inflammatory cell infiltrate (NF-κB and iNOS positive cells)” value (Wistar rats; immunohistochemical staining of arteries, zinc 5 mg/kg i.p. daily for 2 weeks) was “a reduction was evident”, the “external elastic lamina size” value (Wistar rats; zinc 5 mg/kg i.p. daily for 2 weeks after carotid balloon injury) was “without influencing” and the neointimal area (Wistar rats; zinc 5 mg/kg i.p. daily for 2 weeks after carotid balloon injury, FIG. 1) was “reduced”. The neointimal/medial ratio (Wistar rats; zinc 5 mg/kg i.p. daily for 2 weeks after carotid balloon injury, FIG. 2) was “reduced” and the “Levels of serum zinc” value [1] was 0.2482 ± 0.0194 ng/mL.
